PubChem BioAssay AID248 (DTP/NCI, 2004)
Where “and” joins values, the source holds several entries; their conditions need not be identical. Identical values can stand only once. Inconclusive results and toxic doses are left out.

System: L1210 leukemia ip in BDF1 mice, survival T/C
Assay: NCI In Vivo Anticancer Drug Screen. Data for tumor model L1210 Leukemia (intraperitoneal) in B6D2F1 (BDF1) mice
Settings: endpoint: mean survival time, higher = longer survival
Outline: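 Transplantable tumor model; survival measured in treated vs vehicle control mice. Value = treated/control.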

[1] = dose: 35.0 mg/kg/injection, schedule: Q01DX009 (ip), vehicle: saline
[2] = dose: 100.0 mg/kg/injection, schedule: Q01DX001 (ip), vehicle: saline
[3] = dose: 100.0 mg/kg/injection, schedule: Q04DX003 (ip), vehicle: saline
[4] = dose: 200.0 mg/kg/injection, schedule: Q01DX009 (ip), vehicle: saline
[5] = dose: 400.0 mg/kg/injection, schedule: Q01DX001 (ip), vehicle: saline
[6] = dose: 400.0 mg/kg/injection, schedule: Q04DX003 (ip), vehicle: saline
[7] = dose: 100.0 mg/kg/injection, schedule: Q01DX001 (ip), vehicle: Klucel (hydroxypropylcellulose) (HPC)
[8] = dose: 100.0 mg/kg/injection, schedule: Q04DX003 (ip), vehicle: Klucel (hydroxypropylcellulose) (HPC)
[9] = dose: 200.0 mg/kg/injection, schedule: Q04DX003 (ip), vehicle: Klucel (hydroxypropylcellulose) (HPC)
[10] = dose: 400.0 mg/kg/injection, schedule: Q04DX003 (ip), vehicle: Klucel (hydroxypropylcellulose) (HPC)
[11] = dose: 100.0 mg/kg/injection, schedule: Q01DX009 (ip), vehicle: saline
[12] = dose: 200.0 mg/kg/injection, schedule: Q04DX003 (ip), vehicle: saline
[13] = dose: 100.0 mg/kg/injection, schedule: Q01DX009 (ip), vehicle: Klucel (hydroxypropylcellulose) (HPC)
[14] = dose: 200.0 mg/kg/injection, schedule: Q01DX009 (ip), vehicle: Klucel (hydroxypropylcellulose) (HPC)
[15] = dose: 200.0 mg/kg/injection, schedule: Q01DX001 (ip), vehicle: saline

For `COC(OC(CO)C(O)S(=O)(=O)O)C(O)S(=O)(=O)O` (configuration not stated), the T/C (dose: 12.5 mg/kg/injection, schedule: Q03HX008 (ip), vehicle: saline) was 100 % of control, the T/C (dose: 12.5 mg/kg/injection, schedule: Q03HX016 (ip), vehicle: saline) was 97 % of control and the T/C (dose: 12.5 mg/kg/injection, schedule: Q03HX024 (ip), vehicle: saline) was 102 % of control. For the same compound, the T/C (dose: 25.0 mg/kg/injection, schedule: Q03HX008 (ip), vehicle: saline) was 97 % of control, the T/C (dose: 25.0 mg/kg/injection, schedule: Q03HX016 (ip), vehicle: saline) was 102 % of control and the T/C (dose: 25.0 mg/kg/injection, schedule: Q03HX024 (ip), vehicle: saline) was 107 % of control. The T/C (dose: 35.0 mg/kg/injection, schedule: Q01DX001 (ip), vehicle: saline) was 105 % of control and 114 % of control, the T/C [1] was 123 % of control and the T/C (dose: 50.0 mg/kg/injection, schedule: Q01DX009 (sc), vehicle: saline) was 107 % of control. For the same compound, the T/C (dose: 50.0 mg/kg/injection, schedule: Q03HX008 (ip), vehicle: saline) was 117 % of control, the T/C (dose: 50.0 mg/kg/injection, schedule: Q03HX016 (ip), vehicle: saline) was 113 % of control and the T/C (dose: 50.0 mg/kg/injection, schedule: Q03HX024 (ip), vehicle: saline) was 122 % of control. The T/C (dose: 70.0 mg/kg/injection, schedule: Q01DX001 (ip), vehicle: saline) was 112 % of control and 121 % of control, the T/C [2] was 244 % of control and the T/C (dose: 100.0 mg/kg/injection, schedule: Q01DX009 (oral), vehicle: saline) was 107 % of control. The T/C (dose: 100.0 mg/kg/injection, schedule: Q01DX009 (sc), vehicle: saline) was 115 % of control, the T/C (dose: 100.0 mg/kg/injection, schedule: Q03HX008 (ip), vehicle: saline) was 152 % of control and the T/C (dose: 100.0 mg/kg/injection, schedule: Q03HX024 (ip), vehicle: saline) was 167 % of control. For the same compound, the T/C [3] was 122 % of control, the T/C (dose: 140.0 mg/kg/injection, schedule: Q01DX001 (ip), vehicle: saline) was 120 % of control and 121 % of control and the T/C [4] was 151 % of control. For the same compound, the T/C (dose: 200.0 mg/kg/injection, schedule: Q01DX009 (oral), vehicle: saline) was 116 % of control, the T/C (dose: 200.0 mg/kg/injection, schedule: Q01DX009 (sc), vehicle: saline) was 113 % of control and the T/C (dose: 280.0 mg/kg/injection, schedule: Q01DX001 (ip), vehicle: saline) was 124 % of control. For the same compound, the T/C (dose: 280.0 mg/kg/injection, schedule: Q01DX009 (ip), vehicle: saline) was 152 % of control, the T/C [5] was 194 % of control and the T/C (dose: 400.0 mg/kg/injection, schedule: Q01DX009 (oral), vehicle: saline) was 116 % of control. The T/C [6] was 151 % of control and the T/C (dose: 800.0 mg/kg/injection, schedule: Q01DX009 (oral), vehicle: saline) was 103 % of control.
In the case of `O=[N+]([O-])c1cccc(C[n+]2ccccc2C2OCCO2)c1`, the T/C [1] was 95 % of control.
With `Clc1nc2cc(Cl)c(Cl)cc2[nH]1` the T/C (dose: 100.0 mg/kg/injection, schedule: Q04DX003 (ip), vehicle: acetone) was 95 % of control and the T/C (dose: 200.0 mg/kg/injection, schedule: Q04DX003 (ip), vehicle: acetone) was 95 % of control.
For `O=C(CI)Nc1ccc2oc(=O)c(C(=O)O)cc2c1`, the T/C (dose: 20.0 mg/kg/injection, schedule: Q01DX001 (ip), vehicle: Klucel (hydroxypropylcellulose) (HPC)) was 100 % of control, the T/C (dose: 40.0 mg/kg/injection, schedule: Q01DX001 (ip), vehicle: Klucel (hydroxypropylcellulose) (HPC)) was 108 % of control and the T/C (dose: 80.0 mg/kg/injection, schedule: Q01DX001 (ip), vehicle: Klucel (hydroxypropylcellulose) (HPC)) was 107 % of control. The T/C [7] was 97 % of control.
In the case of `Cc1cnc(Cl)c(Br)c1`, the T/C (dose: 100.0 mg/kg/injection, schedule: Q04DX003 (ip), vehicle: saline with Tween-80) was 100 % of control, the T/C (dose: 200.0 mg/kg/injection, schedule: Q04DX003 (ip), vehicle: saline with Tween-80) was 102 % of control and the T/C (dose: 400.0 mg/kg/injection, schedule: Q04DX003 (ip), vehicle: saline with Tween-80) was 98 % of control.
With `CN(C)C(=O)Sc1c(Cl)cc(S(=O)(=O)F)cc1[N+](=O)[O-]` the T/C [8] was 102 % of control, the T/C [9] was 101 % of control and the T/C [10] was 100 % of control.
In the case of `NC(=O)C1(c2ccccc2)CC1`, the T/C [11] was 100 % of control, the T/C [3] was 88 % of control and the T/C [4] was 103 % of control. For the same compound, the T/C [12] was 93 % of control and the T/C [6] was 107 % of control.
`CC(CC(=O)O)C1Nc2ccccc2S(=O)(=O)C(c2ccccc2)C1=O` (configuration not stated) was tested, and the T/C [8] was 95 % of control and 100 % of control and the T/C [9] was 99 % of control.
For `Cn1c(N)c(N=Cc2ccc(C=Nc3c(N)n(C)c(=O)n(C)c3=O)cc2)c(=O)n(C)c1=O`, the T/C (dose: 50.0 mg/kg/injection, schedule: Q01DX001 (ip), vehicle: carboxymethylcellulose (CMC)) was 88 % of control, the T/C (dose: 200.0 mg/kg/injection, schedule: Q01DX001 (ip), vehicle: carboxymethylcellulose (CMC)) was 96 % of control and the T/C (dose: 400.0 mg/kg/injection, schedule: Q01DX001 (ip), vehicle: carboxymethylcellulose (CMC)) was 90 % of control.
With `CCCCOB(OCCCC)c1cccc(C(F)(F)F)c1` the T/C [11] was 100 % of control and the T/C [4] was 89 % of control.
In the case of `COc1cccc2c1OC1(N3CCOCC3)CCCCC1C2C[N+](=O)[O-]` (configuration not stated), the T/C [13] was 97 % of control, the T/C [14] was 105 % of control and the T/C (dose: 400.0 mg/kg/injection, schedule: Q01DX009 (ip), vehicle: Klucel (hydroxypropylcellulose) (HPC)) was 94 % of control.
For `O=C(Nc1cc(F)ccc1F)Oc1cccnc1`, the T/C (dose: 25.0 mg/kg/injection, schedule: Q01DX001 (ip), vehicle: Klucel (hydroxypropylcellulose) (HPC)) was 102 % of control, the T/C (dose: 25.0 mg/kg/injection, schedule: Q04DX003 (ip), vehicle: Klucel (hydroxypropylcellulose) (HPC)) was 107 % of control and the T/C (dose: 50.0 mg/kg/injection, schedule: Q01DX001 (ip), vehicle: Klucel (hydroxypropylcellulose) (HPC)) was 104 % of control. For the same compound, the T/C (dose: 50.0 mg/kg/injection, schedule: Q04DX003 (ip), vehicle: Klucel (hydroxypropylcellulose) (HPC)) was 106 % of control, the T/C (dose: 75.0 mg/kg/injection, schedule: Q01DX009 (ip), vehicle: Klucel (hydroxypropylcellulose) (HPC)) was 103 % of control and 108 % of control and the T/C [7] was 96 % of control. For the same compound, the T/C [13] was 95 % of control and 109 % of control, the T/C (dose: 100.0 mg/kg/injection, schedule: Q04DX002 (ip), vehicle: Klucel (hydroxypropylcellulose) (HPC)) was 95 % of control and 105 % of control and the T/C [8] was 97 % of control. For the same compound, the T/C (dose: 150.0 mg/kg/injection, schedule: Q01DX009 (ip), vehicle: Klucel (hydroxypropylcellulose) (HPC)) was 107 % of control, the T/C [14] was 100 % of control and the T/C (dose: 200.0 mg/kg/injection, schedule: Q04DX002 (ip), vehicle: Klucel (hydroxypropylcellulose) (HPC)) was 100 % of control and 108 % of control. The T/C (dose: 400.0 mg/kg/injection, schedule: Q04DX002 (ip), vehicle: Klucel (hydroxypropylcellulose) (HPC)) was 94 % of control and 87 % of control.
In the case of `CC(C)NC(=O)OC(C)C`, the T/C [8] was 96 % of control, the T/C [9] was 104 % of control and the T/C [10] was 98 % of control.
For `C[N+](C)(C)c1ncnc2c1ncn2C1CC(O)C(CO)O1` (configuration not stated), the T/C (dose: 50.0 mg/kg/injection, schedule: Q01DX001 (ip), vehicle: saline) was 104 % of control, the T/C [2] was 96 % of control and the T/C [15] was 102 % of control.
`O=C1C=C(Nc2cccc(O)c2)c2ccccc2C1=O` was tested, and the T/C [3] was 94 % of control, the T/C [12] was 97 % of control and the T/C [6] was 89 % of control.
`O=C1CCN2CCCc3cccc1c32` was tested, and the T/C (dose: 100.0 mg/kg/injection, schedule: Q01DX001 (ip), vehicle: other) was 100 % of control, the T/C (dose: 200.0 mg/kg/injection, schedule: Q01DX001 (ip), vehicle: other) was 97 % of control and the T/C (dose: 400.0 mg/kg/injection, schedule: Q01DX001 (ip), vehicle: other) was 102 % of control.
For `CS(=O)(=O)OCCCCCOS(C)(=O)=O`, the T/C (dose: 5.0 mg/kg/injection, schedule: Q01DX001 (ip), vehicle: carboxymethylcellulose (CMC)) was 97 % of control, the T/C (dose: 6.0 mg/kg/injection, schedule: Q01DX015 (ip), vehicle: saline) was 101 % of control and the T/C (dose: 10.0 mg/kg/injection, schedule: Q01DX001 (ip), vehicle: carboxymethylcellulose (CMC)) was 100 % of control. The T/C (dose: 12.0 mg/kg/injection, schedule: Q01DX015 (ip), vehicle: saline) was 110 % of control, the T/C (dose: 20.0 mg/kg/injection, schedule: Q01DX001 (ip), vehicle: carboxymethylcellulose (CMC)) was 100 % of control and the T/C (dose: 40.0 mg/kg/injection, schedule: Q01DX001 (ip), vehicle: carboxymethylcellulose (CMC)) was 101 % of control. For the same compound, the T/C (dose: 50.0 mg/kg/injection, schedule: Q01DX015 (ip), vehicle: saline) was 101 % of control.
`CC(CCO)CCC1OC1(C)C` (configuration not stated) was tested, and the T/C [2] was 103 % of control, the T/C [15] was 105 % of control and the T/C [5] was 103 % of control.
